The values that follow come from ChEMBL document CHEMBL1129976, “New benzocycloalkylpiperazines, potent and selective 5-HT1A receptor ligands” (J Med Chem, 1997).

The structures appear in SMILES notation.

T2 sequence (Q95136 whole entry): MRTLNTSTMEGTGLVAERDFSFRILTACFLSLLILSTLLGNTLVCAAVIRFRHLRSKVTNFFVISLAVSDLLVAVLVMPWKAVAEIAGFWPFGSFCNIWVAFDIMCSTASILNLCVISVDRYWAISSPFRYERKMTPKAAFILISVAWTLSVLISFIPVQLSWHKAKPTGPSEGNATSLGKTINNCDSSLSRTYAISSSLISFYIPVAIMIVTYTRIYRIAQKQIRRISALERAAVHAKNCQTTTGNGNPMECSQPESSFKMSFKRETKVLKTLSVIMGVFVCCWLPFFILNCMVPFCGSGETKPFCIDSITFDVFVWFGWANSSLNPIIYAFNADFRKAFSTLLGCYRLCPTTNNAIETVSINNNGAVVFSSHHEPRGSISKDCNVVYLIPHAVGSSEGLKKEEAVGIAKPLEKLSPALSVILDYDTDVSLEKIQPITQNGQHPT
Sequence of Histamine H1 receptor (P31390 whole entry): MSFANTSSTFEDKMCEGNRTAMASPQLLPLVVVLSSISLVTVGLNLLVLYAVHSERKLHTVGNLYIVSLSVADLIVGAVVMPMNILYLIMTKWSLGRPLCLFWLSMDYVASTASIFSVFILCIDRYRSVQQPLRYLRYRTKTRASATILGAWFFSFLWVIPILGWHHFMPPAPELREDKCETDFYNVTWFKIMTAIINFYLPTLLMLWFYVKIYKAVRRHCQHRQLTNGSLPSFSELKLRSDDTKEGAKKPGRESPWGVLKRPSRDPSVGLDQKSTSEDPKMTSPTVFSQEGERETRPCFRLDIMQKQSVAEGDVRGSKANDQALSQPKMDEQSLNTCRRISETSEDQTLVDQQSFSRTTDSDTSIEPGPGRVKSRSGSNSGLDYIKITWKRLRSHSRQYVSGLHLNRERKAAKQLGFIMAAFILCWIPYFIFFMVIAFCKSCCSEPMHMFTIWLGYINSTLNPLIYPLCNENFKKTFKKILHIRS

The target in the first experiment is D(2) dopamine receptor (Bos taurus, UniProt P20288). Description: Inhibition of [3H]raclopride binding to Dopamine receptor D2 of bovine striatum. It is filed as tissue-based.
Sequence of D(2) dopamine receptor (P20288 whole entry): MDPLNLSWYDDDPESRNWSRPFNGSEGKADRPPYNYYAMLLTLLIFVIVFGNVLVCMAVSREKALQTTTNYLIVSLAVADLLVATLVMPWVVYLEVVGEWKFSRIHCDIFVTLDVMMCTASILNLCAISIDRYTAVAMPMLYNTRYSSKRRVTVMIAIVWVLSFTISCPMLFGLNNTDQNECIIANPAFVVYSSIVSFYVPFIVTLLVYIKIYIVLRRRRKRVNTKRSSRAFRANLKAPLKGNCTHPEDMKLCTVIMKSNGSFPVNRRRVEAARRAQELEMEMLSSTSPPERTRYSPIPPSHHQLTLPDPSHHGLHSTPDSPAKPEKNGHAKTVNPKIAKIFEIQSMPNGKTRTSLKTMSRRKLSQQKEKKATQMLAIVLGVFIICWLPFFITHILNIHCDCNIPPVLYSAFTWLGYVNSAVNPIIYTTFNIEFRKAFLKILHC
Conditions: not given
For `O=C(NCCN1CCN(C2CCCc3ccccc32)CC1)c1ccc(Cl)cc1` (stereo in doubt; (+)-34), the Ki (as a rule, the equilibrium dissociation constant of an inhibitor or competing ligand from its target) amounted to 700 nM.
The same measure, in the same setting: to `O=C(NCCN1CCN(C2CCCc3ccccc32)CC1)c1ccccc1` (single isomer, unassigned; (-)) belongs 130 nM; to `O=C(NCCN1CCN(C2CCCc3ccccc32)CC1)c1ccc(F)cc1` (single isomer, unassigned; (-)), 70 nM.
On the same count and under the same terms, to `O=C(NCCN1CCN(C2CCCc3ccccc32)CC1)c1ccc(F)cc1` (single isomer, unassigned; (+)) belongs 740 nM.
The same measure, in the same setting: to `O=C(NCCN1CCN(C2CCCc3ccccc32)CC1)c1ccc(F)cc1` (stereo in doubt; 33) belongs 70 nM.

The target in a further experiment is Sigma non-opioid intracellular receptor 1 (Rattus norvegicus, UniProt Q9R0C9). In words: Inhibition of [3H]DTG binding to sigma receptor in rat hippocampus. It is filed as tissue-based.
Sequence of Sigma non-opioid intracellular receptor 1 (Q9R0C9 whole entry): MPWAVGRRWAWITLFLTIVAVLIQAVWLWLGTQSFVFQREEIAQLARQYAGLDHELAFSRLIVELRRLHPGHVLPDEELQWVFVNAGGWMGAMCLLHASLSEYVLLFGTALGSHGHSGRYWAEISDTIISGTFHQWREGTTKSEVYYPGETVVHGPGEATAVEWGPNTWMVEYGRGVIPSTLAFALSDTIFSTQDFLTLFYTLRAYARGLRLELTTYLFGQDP
Conditions: not given
Compound `O=C(NCCN1CCN(C2CCCc3ccccc32)CC1)c1ccc(Cl)cc1` (stereo in doubt; (+)-34) registered a Ki of 200 nM.
For the compound `O=C(NCCN1CCN(C2CCCc3ccccc32)CC1)c1ccc(F)cc1` (single isomer, unassigned; (-)), the affinity, expressed as Ki, was 130 nM.
Still for that read-out and setting: as for `O=C(NCCN1CCN(C2CCCc3ccccc32)CC1)c1ccc(F)cc1` (single isomer, unassigned; (+)), the figure is 190 nM; as for `O=C(NCCN1CCN(C2CCCc3ccccc32)CC1)c1ccc(F)cc1` (stereo in doubt; 33), 280 nM.

In a further experiment the target is T1, 5-hydroxytryptamine receptor 1A (Rattus norvegicus, UniProt P19327).
T1 sequence (P19327 whole entry): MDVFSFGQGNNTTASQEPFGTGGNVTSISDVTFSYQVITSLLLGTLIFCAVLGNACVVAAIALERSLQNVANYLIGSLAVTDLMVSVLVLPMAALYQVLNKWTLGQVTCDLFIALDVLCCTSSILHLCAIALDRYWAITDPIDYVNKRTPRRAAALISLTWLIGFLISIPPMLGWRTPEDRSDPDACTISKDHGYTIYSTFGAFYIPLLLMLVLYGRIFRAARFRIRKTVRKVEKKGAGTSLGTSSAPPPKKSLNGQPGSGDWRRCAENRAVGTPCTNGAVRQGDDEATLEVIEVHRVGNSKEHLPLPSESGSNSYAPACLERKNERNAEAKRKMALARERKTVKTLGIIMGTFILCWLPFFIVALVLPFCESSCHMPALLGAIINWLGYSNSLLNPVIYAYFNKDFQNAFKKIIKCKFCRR
In words: Displacement of [3H]8-OH-DPAT from 5-hydroxytryptamine 1A receptor of rat hippocampal membranes. It is filed as cell membranes, Membrane.
Conditions: not given
Regarding `O=C(NCCN1CCN(C2CCCc3ccccc32)CC1)c1ccc(Cl)cc1` (stereo in doubt; (+)-34), the Ki was 210 nM.
The compound `O=C(NCCN1CCN(C2CCCc3ccccc32)CC1)c1ccccc1` (single isomer, unassigned; (-)) showed a Ki of 0.4 nM.
The same measure, in the same setting: as for `O=C(NCCN1CCN(C2CCCc3ccccc32)CC1)c1ccc(F)cc1` (single isomer, unassigned; (+)), the figure is 50 nM; as for `O=C(NCCN1CCN(C2CCCc3ccccc32)CC1)c1ccc(F)cc1` (stereo in doubt; 33), 1.5 nM.

Target in a further experiment: not listed separately
Description: Displacement of [3H]-prazosin from Alpha-1 adrenergic receptor of bovine frontal cortex.
Conditions: not given
The format is tissue-based, Bos taurus. A general note: Displacement assays read how much labelled ligand stays bound in the presence of the test substance.
`O=C(NCCN1CCN(C2CCCc3ccccc32)CC1)c1ccc(Cl)cc1` (stereo in doubt; (+)-34) gave an inhibitory constant (Ki) of 8380 nM.
On the same count and under the same terms, as for `O=C(NCCN1CCN(C2CCCc3ccccc32)CC1)c1ccccc1` (single isomer, unassigned; (-)), the figure is 190 nM; as for `O=C(NCCN1CCN(C2CCCc3ccccc32)CC1)c1ccc(F)cc1` (single isomer, unassigned; (-)), 124 nM; as for `O=C(NCCN1CCN(C2CCCc3ccccc32)CC1)c1ccc(F)cc1` (single isomer, unassigned; (+)), 710 nM.
Compound `O=C(NCCN1CCN(C2CCCc3ccccc32)CC1)c1ccc(F)cc1` (stereo in doubt; 33) returned a Ki of 80 nM.

The next experiment has as its target T2, D(1A) dopamine receptor (Bos taurus, UniProt Q95136). In words: Binding affinity of compound towards Dopamine receptor D1 using [3H]SCH-23390 (0.5 nM) ligand in striatum bovine was determined. It is filed as tissue-based.
Conditions: not given
In turn, `OCCN1CCN(CC/C=C2\c3ccccc3Sc3ccc(C(F)(F)F)cc32)CC1` [E-FLUPENTIXOL] gave an inhibitory constant (Ki) of 18 nM.

The target of the next experiment is T2, D(1A) dopamine receptor. Description: Inhibition of [3H]SCH-23390 binding to Dopamine receptor D1 of bovine striatum. It is filed as tissue-based.
Conditions: not given
On to `O=C(NCCN1CCN(C2CCCc3ccccc32)CC1)c1ccc(Cl)cc1` (stereo in doubt; (+)-34), for which the Ki amounted to 19700 nM.
For `O=C(NCCN1CCN(C2CCCc3ccccc32)CC1)c1ccc(F)cc1` (single isomer, unassigned; (-)), the Ki turned out to be 3090 nM.
Still for that read-out and setting: as for `O=C(NCCN1CCN(C2CCCc3ccccc32)CC1)c1ccc(F)cc1` (stereo in doubt; 33), the figure is 12000 nM.

The target in another experiment is 5-hydroxytryptamine receptor 1D (Sus scrofa, UniProt P79400). Description: Binding affinity against 5-hydroxytryptamine 1D receptor using [3H]5-HT in pig striatum + frontalCortex.
Sequence of 5-hydroxytryptamine receptor 1D (P79400 whole entry): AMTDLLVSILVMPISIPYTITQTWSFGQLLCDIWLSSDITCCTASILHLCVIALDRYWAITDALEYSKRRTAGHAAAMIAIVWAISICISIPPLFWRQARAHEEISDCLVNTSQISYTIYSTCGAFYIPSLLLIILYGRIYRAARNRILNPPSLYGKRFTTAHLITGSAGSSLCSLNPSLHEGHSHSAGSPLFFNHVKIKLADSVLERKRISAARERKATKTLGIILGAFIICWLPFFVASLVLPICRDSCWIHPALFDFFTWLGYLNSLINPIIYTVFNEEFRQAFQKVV
Conditions: not given
The format is tissue-based.
Regarding `O=C(NCCN1CCN(C2CCCc3ccccc32)CC1)c1ccc(F)cc1` (stereo in doubt; 33), the inhibitory constant (Ki) stood at 9770 nM.

Target in a further experiment: not listed separately
Description: Inhibition of [3H]ketanserin binding to 5-hydroxytryptamine 2 receptor of bovine frontal cortex. It is filed as tissue-based, Bos taurus.
Conditions: not given
With `O=C(NCCN1CCN(C2CCCc3ccccc32)CC1)c1ccc(Cl)cc1` (stereo in doubt; (+)-34), the inhibition constant Ki came out at 3800 nM.

The same experiment, now with this note: read-out: Ki.
Turning to `O=C(NCCN1CCN(C2CCCc3ccccc32)CC1)c1ccc(F)cc1` (single isomer, unassigned; (-)), the Ki came to 1380 nM.
Take `O=C(NCCN1CCN(C2CCCc3ccccc32)CC1)c1ccc(F)cc1` (single isomer, unassigned; (+)): the Ki came to 1300 nM.
The same measure, in the same setting: as for `O=C(NCCN1CCN(C2CCCc3ccccc32)CC1)c1ccc(F)cc1` (stereo in doubt; 33), the figure is 1180 nM.

The target in a further experiment is T3, 5-hydroxytryptamine receptor 3B (Mus musculus, UniProt Q9JHJ5).
T3 sequence (Q9JHJ5 whole entry): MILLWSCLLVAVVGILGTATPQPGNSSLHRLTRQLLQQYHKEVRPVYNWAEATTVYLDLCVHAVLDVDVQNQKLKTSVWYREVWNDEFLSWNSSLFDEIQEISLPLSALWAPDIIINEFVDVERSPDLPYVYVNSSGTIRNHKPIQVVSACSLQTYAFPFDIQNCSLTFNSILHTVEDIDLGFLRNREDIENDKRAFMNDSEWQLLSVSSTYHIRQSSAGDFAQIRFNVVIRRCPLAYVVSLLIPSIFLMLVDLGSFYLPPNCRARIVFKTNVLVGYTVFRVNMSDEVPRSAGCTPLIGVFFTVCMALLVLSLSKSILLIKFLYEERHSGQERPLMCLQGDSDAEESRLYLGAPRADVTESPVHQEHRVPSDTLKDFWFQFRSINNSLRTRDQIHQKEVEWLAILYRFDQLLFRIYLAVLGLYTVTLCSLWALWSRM
In words: Inhibition of [3H]BRL-43694 binding to 5-hydroxytryptamine 3 receptor in NG cells 108-15. It is filed as cell-based.
Conditions: not given
`O=C(NCCN1CCN(C2CCCc3ccccc32)CC1)c1ccc(F)cc1` (stereo in doubt; 33): the inhibition constant (Ki) turned out to be 3470 nM.

Another experiment has as its target Histamine H1 receptor (Rattus norvegicus, UniProt P31390). Description: Inhibition of [3H]pyrilamine binding to Histamine H1 receptor in rat cortex.
Conditions: not given
Regarding `O=C(NCCN1CCN(C2CCCc3ccccc32)CC1)c1ccccc1` (single isomer, unassigned; (-)), the inhibition constant (Ki) is 70 nM.
On the same count and under the same terms, to `O=C(NCCN1CCN(C2CCCc3ccccc32)CC1)c1ccc(F)cc1` (single isomer, unassigned; (-)) belongs 58 nM; to `O=C(NCCN1CCN(C2CCCc3ccccc32)CC1)c1ccc(F)cc1` (stereo in doubt; 33), 140 nM.

The test system of a further experiment is Rattus norvegicus. Description: in vivo behavioral test for Lower Lip Retraction(LLR) (msad=minimum significant active dose) in rats. The format is functional.
Conditions: not given
In turn, `O=C(NCCN1CCN(C2CCCc3ccccc32)CC1)c1ccccc1` (single isomer, unassigned; (-)) displayed an LLR msad of 2.75 mg/kg.
The same measure, in the same setting: to `O=C(NCCN1CCN(C2CCCc3ccccc32)CC1)c1ccc(F)cc1` (single isomer, unassigned; (-)) belongs 2.25 mg/kg.

In a further experiment the target is T1, 5-hydroxytryptamine receptor 1A. In words: Inhibition of forskolin-activated adenylate cyclase (cAMP) activity at 5-hydroxytryptamine 1A receptor in rat hippocampus. The format is functional, tissue-based.
Conditions: not given
As for `O=C(NCCN1CCN(C2CCCc3ccccc32)CC1)c1ccc(Cl)cc1` (stereo in doubt; (+)-34), the midpoint of inhibition, the IC50, lay at 1500 nM.
Still for that read-out and setting: as for `O=C(NCCN1CCN(C2CCCc3ccccc32)CC1)c1ccccc1` (single isomer, unassigned; (-)), the figure is 14 nM; as for `O=C(NCCN1CCN(C2CCCc3ccccc32)CC1)c1ccc(F)cc1` (single isomer, unassigned; (-)), 15 nM; as for `O=C(NCCN1CCN(C2CCCc3ccccc32)CC1)c1ccc(F)cc1` (single isomer, unassigned; (+)), 1450 nM.
Still for that read-out and setting: as for `O=C(NCCN1CCN(C2CCCc3ccccc32)CC1)c1ccc(F)cc1` (stereo in doubt; 33), the figure is 52 nM.
